pKi: −log10 of the molar value.

In assay [1] the target is T1, Adenosine receptor A1 (Rattus norvegicus, UniProt P25099).
T1 sequence (P25099 whole entry): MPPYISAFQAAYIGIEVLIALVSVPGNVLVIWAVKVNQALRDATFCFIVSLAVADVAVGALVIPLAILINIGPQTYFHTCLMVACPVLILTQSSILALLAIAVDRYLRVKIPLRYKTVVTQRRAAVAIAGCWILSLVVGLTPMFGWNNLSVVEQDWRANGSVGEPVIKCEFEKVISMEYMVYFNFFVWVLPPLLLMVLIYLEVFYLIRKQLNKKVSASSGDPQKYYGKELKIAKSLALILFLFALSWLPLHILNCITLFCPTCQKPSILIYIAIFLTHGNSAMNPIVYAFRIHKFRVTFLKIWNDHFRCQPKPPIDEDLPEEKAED
The assay is described as follows: Binding affinity for Adenosine A1 receptor using [3H]- CHA or [3H]- PIA.

For assay [2], the target named is T1, Adenosine receptor A1.
Assay [3] addresses T2, Adenosine A2 receptor (Homo sapiens, UniProt P29275+P29274). The assay is described as follows: Binding affinity for adenosine A2 receptor using [3H]- NECA antagonism of adenylate cyclase activation in human platelets.
Assay [4] deals with T1, Adenosine receptor A1. The assay is described as follows: Binding affinity for adenosine A1 receptor using [3H]- CHA or [3H]- PIA antagonism of adenylate cyclase inhibition in rat adipocytes. It counts as cell-based.
Assay [5] concerns the target T2, Adenosine A2 receptor. The assay is described as follows: Binding affinity for adenosine A2 receptor using [3H]- NECA in bovine brain. As to conditions: Bos taurus; target entry is the homologue from another species.
The target in assay [6] is T3, Adenosine receptor A1 (Bos taurus, UniProt P28190).
T3 sequence (P28190 whole entry): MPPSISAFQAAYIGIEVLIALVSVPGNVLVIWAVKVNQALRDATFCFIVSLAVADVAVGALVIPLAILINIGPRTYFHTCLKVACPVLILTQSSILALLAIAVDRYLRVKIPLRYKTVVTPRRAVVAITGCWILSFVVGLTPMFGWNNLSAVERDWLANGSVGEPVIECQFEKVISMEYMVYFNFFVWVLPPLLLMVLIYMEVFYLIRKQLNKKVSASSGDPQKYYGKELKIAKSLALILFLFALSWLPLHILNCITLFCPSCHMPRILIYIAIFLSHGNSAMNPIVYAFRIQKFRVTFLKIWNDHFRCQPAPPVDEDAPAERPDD
The assay is described as follows: Binding affinity for adenosine A1 receptor using [3H]- CHA or [3H]- PIA in bovine brain.

Assay [7] addresses Adenosine A2 receptor (Rattus norvegicus, UniProt P29276+P30543). The assay is described as follows: Binding affinity for adenosine A2 receptor using [3H]- NECA. It counts as protein assay.
For assay [8], the target named is T2, Adenosine A2 receptor. The assay is described as follows: Binding affinity for adenosine A2 receptor using [125I]PAPA-APEC in bovine striatum. Format: tissue-based. As to conditions: Bos taurus, target entry is the homologue from another species.
In assay [9] the test system is Adenosine receptors; A1 & A2 (Rattus norvegicus). The assay is described as follows: Ratio of adenosine A2 to A1 receptor binding.
Assay [10] addresses Adenosine A2 receptor (Rattus norvegicus) (UniProt P29276+P30543). The assay is described as follows: Binding affinity for Adenosine A2 receptor using [3H]- NECA. It counts as protein assay.
In assay [11] the target is T3, Adenosine receptor A1. The assay is described as follows: Binding affinity for adenosine A1 receptor using [3H]- CHA or [3H]- PIA in bovine brain cortical membranes. Format: cell membranes.

As usually defined, the pKi is the negative decadic logarithm of the Ki, by convention in mol/L. The compound `C[C@H](Cc1ccc(O)c(I)c1)Nc1ncnc2c1ncn2[C@@H]1O[C@H](CO)[C@@H](O)[C@H]1O` showed a pKi at Adenosine receptor A1 [1] of 9.03.

Turning to `CCCCC#Cc1nc(N)c2ncn([C@@H]3O[C@H](CO)[C@@H](O)[C@H]3O)c2n1`, the pKi at Adenosine receptor A1 [2] was 6.83. Usually Ki stands for a dissociation constant, usually derived from enzyme kinetics or from competition with a known ligand. A low value points to tighter binding. Consider `CCCn1c(=O)c2nc([C@H]3CC[C@H](CNC(C)=O)CC3)[nH]c2n(CCC)c1=O`, for which, on Adenosine A2 receptor [3], the Ki turned out to be 20 nM. Besides, on Adenosine receptor A1 [4], the pKi is 8.10. Compound `Nc1nc(NCCC2C=CCCC2)nc2c1ncn2C1O[C@H](CO)[C@@H](O)[C@H]1O` (stereo partly specified) had a pKi on Adenosine receptor A1 [2] of 5.57.

`O=C(Cc1ccc(NC(=O)Cc2ccc(Nc3ncnc4c3ncn4C3O[C@H](CO)[C@@H](O)[C@H]3O)cc2)cc1)NCC/N=C(/S)Nc1ccc2c(c1)C(=O)OC21c2ccc(O)cc2Oc2cc(O)ccc21` (stereo partly specified) had a pKi on Adenosine receptor A1 [1] of 8.15. With `Cn1cnc2c(NC3CC4CCC3C4)ncnc21` (stereo unspecified), the pKi on Adenosine A2 receptor [5] was 5.21; on Adenosine receptor A1 [6], 8.00. Turning to `Oc1cccc(C2=CSC3=Nc4ccccc4CN23)c1`, the pKi on Adenosine receptor A1 [2] is 5.51.

Compound `Cc1ccc(CCOc2nc(N)c3ncn(C4O[C@@H](CO)[C@H](O)[C@@H]4O)c3n2)cc1` (stereo partly specified) had a pKi on Adenosine receptor A1 [2] of 7.32. Take `CCNC(=O)[C@H]1OC(n2cnc3c(N)nc(NCCc4ccc(CCC(=O)NCCNC(=O)Cc5ccc(N)c(I)c5)cc4)nc32)[C@H](O)[C@@H]1O` (stereo partly specified): on Adenosine A2 receptor [7], the Ki is 1 nM. `CCNC(=O)[C@H]1OC(n2cnc3c(N)nc(NCCc4ccc(CCC(=O)NCC/N=C(\S)Nc5ccc(N=C=S)cc5)cc4)nc32)[C@H](O)[C@@H]1O` (stereo partly specified): the pKi was 8.15 at Adenosine A2 receptor [8] and 6.55 on Adenosine receptor A1 [2]. `Cc1c(C)n([C@H](C)Cc2ccccc2)c2nc(-c3ccccc3)nc(N)c12` had a pKi on Adenosine receptor A1 [2] of 8.33. For the compound `CCCn1c(=O)c2[nH]c(C3CCC(=O)C3)nc2n(CCC)c1=O` (stereo unspecified), the pKi at Adenosine receptor A1 [2] is 7.98.

On Adenosine receptor A1 [2], `CCCn1c(=O)c2nc(C3CCCC3)[nH]c2n(CCc2ccc(N)c(I)c2)c1=O` had a pKi of 9.64.

In the case of `OCCCNc1ncnc2c1ncn2C1O[C@H](CO)[C@@H](O)[C@H]1O` (stereo partly specified), the Ratio in assay [9] turned out to be 700. The pKi in assay [10] was 5.31; at Adenosine receptor A1 [1] it was 8.15. Take `OC[C@H]1O[C@@H](n2cnc3c(NCCc4ccccc4)ncnc32)[C@H](O)[C@@H]1O`: the negative logarithm of the Ki (pKi) at Adenosine receptor A1 [1] is 8.39. The compound `CCNC(=O)[C@H]1O[C@@H](n2cnc3c(N)nc(NCCc4ccc(CCC(=O)NCCN)cc4)nc32)[C@H](O)[C@@H]1O` came in with a Ki at Adenosine A2 receptor [7] of 5.7 nM. In addition, the pKi at Adenosine receptor A1 [2] was 6.62. At Adenosine receptor A1 [2], `C#CCn1c(=O)c2c(ncn2C)n(C)c1=O` had a pKi of 4.66. For the compound `Nc1ccc(CCNc2ncnc3c2ncn3C2O[C@H](CO)[C@@H](O)[C@H]2O)cc1I` (stereo partly specified), the pKi on Adenosine receptor A1 [1] is 8.70. With `FC(F)(F)c1nnc2c(NC3CCCC3)nc3ccc(Cl)cc3n12`, the pKi at Adenosine receptor A1 [2] was 7.55. As to `CCCCCCCCCCCCCCCCCC(=O)NCCNC(=O)Cc1ccc(NC(=O)Cc2ccc(Nc3ncnc4c3ncn4C3O[C@H](CO)[C@@H](O)[C@H]3O)cc2)cc1` (stereo partly specified), the Ratio in [9] was found to be 38000. In addition, the pKi in [10] is 5.08; at Adenosine receptor A1 [1] it was 9.66. Take `CCCCCCC#Cc1nc(N)c2ncn([C@@H]3O[C@H](CO)[C@@H](O)[C@H]3O)c2n1`: on Adenosine receptor A1 [2], the pKi is 6.68. As for `Cn1c(=O)c2c(nc(C3CCCCC3)n2C)n(C)c1=O`, the Ki on Adenosine A2 receptor [3] came to 0.19 nM.

With `Nc1ccc(CNc2ncnc3c2ncn3C2O[C@H](CO)[C@@H](O)[C@H]2O)cc1I` (stereo partly specified), the negative-log Ki (pKi) at Adenosine receptor A1 [1] was 9.15. As for `CCCn1c(=O)c2nc(-c3ccc(OCC(=O)NCCNC(=O)CCc4ccc(N)c(I)c4)cc3)[nH]c2n(CCC)c1=O`, at Adenosine receptor A1 [11], the pKi was 10.00. As to `Nc1nc(-c2ccccc2)nc2c1cnn2-c1ccccc1`, the pKi on Adenosine receptor A1 [2] was 7.64.

In turn, `Nc1nc2ccc(Cl)cc2n2c(-c3ccccc3)nnc12` gave a pKi on Adenosine receptor A1 [2] of 6.57.

As for `OC[C@H]1O[C@@H](n2cnc3c(Nc4ccccc4)ncnc32)[C@H](O)[C@@H]1O`, in [10], the pKi was 6.18. As for `Nc1nc(OCCC2CCCCC2)nc2c1ncn2C1O[C@@H](CO)[C@H](O)[C@@H]1O` (stereo partly specified), the pKi on Adenosine receptor A1 [2] is 5.82.

Values taken from ChEMBL document CHEMBL1125572, “Adenosine receptors: pharmacology, structure-activity relationships, and therapeutic potential” (J Med Chem, 1992).
